In patent US20230017786A1, “DEXTR[…] A DISEASE-MODIFYING TREATMENT FOR NEUROPSYCHIATRIC DISORDERS AND DISEASES” (priority 2020, published 2023):
pKi: −log10 of the molar value.

Experiments:
5-HT2C receptor = molecular target: T1, 5-HT2C receptor (Homo sapiens, UniProt P28335); conditions: agonist; Rickli et al., 2018; cited from earlier work
T1 sequence (P28335 33-458): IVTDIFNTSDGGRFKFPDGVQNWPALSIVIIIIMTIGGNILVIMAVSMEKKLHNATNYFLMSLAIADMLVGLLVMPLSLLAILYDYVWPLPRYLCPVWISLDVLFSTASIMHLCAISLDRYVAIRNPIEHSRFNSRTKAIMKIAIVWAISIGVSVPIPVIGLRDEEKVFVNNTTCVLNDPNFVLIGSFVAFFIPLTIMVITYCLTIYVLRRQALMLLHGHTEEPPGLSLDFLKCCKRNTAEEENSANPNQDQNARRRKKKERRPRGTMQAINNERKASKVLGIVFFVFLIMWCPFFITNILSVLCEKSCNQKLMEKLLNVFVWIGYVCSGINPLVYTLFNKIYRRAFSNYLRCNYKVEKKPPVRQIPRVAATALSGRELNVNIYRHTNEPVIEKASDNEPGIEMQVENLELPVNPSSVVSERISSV

GluN1/GluN2D receptor = molecular target: T2, GluN1/GluN2D receptor (Homo sapiens, UniProt O15399+Q05586); assay: Automated patch clamp (QPatch HTX) in presence of 1 mM extracellular magnesium; assay type: cell-based; conditions: 10 μM dextromethadone, 1 mM Mg2+
T2 construct: expressed in transfected cells; host or cells: CHO
Description: Automated patch clamp experiments were performed in QPatch HTX (Sophion Bioscience A/S, Ballerup, Denmark) using CHO cells stably expressing recombinant diheteromeric human NMDAR. Cells were clamped at −80 mV holding potential in presence of 1 mM extracellular magnesium. Voltage protocol included a depolarizing 2 s step pulse to +60 mV, to check quality of the seal and cell NMDAR expression level, followed by a 2 s ramp back to holding potential.

[1] = molecular target: T3, human NMDA receptor GluN1-GluN2A (Homo sapiens, UniProt Q05586+Q12879); assay: FLIPR calcium assay, quinolinic acid, gentamicin, dextromethadone (Example 5 Part II), GluN1-GluN2A-CHO; assay type: cell-based; set-up: calcium response (mean±SEM): unit not given here; conditions: 10 μM glycine; for calcium response (mean±SEM): GluN2A, n=42
T3 construct: expressed in transfected cells; host or cells: CHO
In short: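 CHO lines expressing diheteromeric human GluN1/GluN2A–D, loaded 1 h with Fluo-4, tested by FLIPR for intracellular calcium with 10 μM glycine present. Quinolinic acid, gentamicin and test items were run as concentration-response curves, alone or combined. EC50 obtained from a four-parameter Hill fit.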

healthy subjects = assay: Phase 1 SAD and MAD studies, safety and tolerability
[2] = molecular target: T4, human NMDA receptor GluN1-GluN2C (Homo sapiens, UniProt Q05586+Q14957); assay: FLIPR calcium assay, quinolinic acid, gentamicin, dextromethadone (Example 5 Part II), GluN1-GluN2C-CHO; assay type: cell-based; conditions: 10 μM glycine; for calcium response (mean±SEM): GluN2C, n=42
T4 construct: expressed in transfected cells; host or cells: CHO

[3] = molecular target: T5, recombinant human NMDAR GluN1 plus GluN2B (Homo sapiens, UniProt Q05586+Q13224); assay: FLIPR calcium assay, gentamicin as PAM (Example 5 Part I), GluN2B cell line; assay type: cell-based; conditions: 10 μM test item; dextromethadone in presence and absence of 10 μM gentamicin
T5 construct: expressed in transfected cells; host or cells: CHO
Description: (§1) A FLIPR calcium assay was used to profile gentamicin using stable cell lines expressing diheteromeric recombinant human NMDARs, containing GluN1 plus one amongst GluN2A, GluN2B, GluN2C or GluN2D subunit.

[4] = molecular target: T6, recombinant human NMDAR GluN1 plus GluN2A (Homo sapiens, UniProt Q05586+Q12879); assay: FLIPR calcium assay, gentamicin as PAM (Example 5 Part I), GluN2A cell line; assay type: cell-based; conditions: 10 μM test item; dextromethadone in presence and absence of 10 μM gentamicin
T6 construct: expressed in transfected cells; host or cells: CHO
Description: as §1

[5] = molecular target: T7, recombinant human NMDAR GluN1 plus GluN2C (Homo sapiens, UniProt Q05586+Q14957); assay: FLIPR calcium assay, gentamicin as PAM (Example 5 Part I), GluN2C cell line; assay type: cell-based; conditions: 10 μM test item; dextromethadone in presence and absence of 10 μM gentamicin
T7 construct: expressed in transfected cells; host or cells: CHO
Description: as §1

5-HT2A receptor = 5-HT2A receptor (Homo sapiens, UniProt P28223); conditions: agonist; Rickli et al., 2018; cited from earlier work
[6] = 0.04 μM L-Glu + 100 μM QA + 10 μM DXT
[7] = 0.04 μM L-Glu + 1000 μM QA + 10 μM DXT
[8] = 0.2 μM L-Glu + 100 μM QA + 10 μM DXT
[9] = 0.2 μM L-Glu + 1000 μM QA + 10 μM DXT
[10] = 1000 μM QA + 10 μg/ml GENT + 10 μM DXT
[11] = Table 41: 0.04 μM L-Glu + 10 μM DXT
[12] = Table 43: 0.2 μM L-Glu + 10 μM DXT

T3 sequence (Q12879 23-1464, other chains not shown): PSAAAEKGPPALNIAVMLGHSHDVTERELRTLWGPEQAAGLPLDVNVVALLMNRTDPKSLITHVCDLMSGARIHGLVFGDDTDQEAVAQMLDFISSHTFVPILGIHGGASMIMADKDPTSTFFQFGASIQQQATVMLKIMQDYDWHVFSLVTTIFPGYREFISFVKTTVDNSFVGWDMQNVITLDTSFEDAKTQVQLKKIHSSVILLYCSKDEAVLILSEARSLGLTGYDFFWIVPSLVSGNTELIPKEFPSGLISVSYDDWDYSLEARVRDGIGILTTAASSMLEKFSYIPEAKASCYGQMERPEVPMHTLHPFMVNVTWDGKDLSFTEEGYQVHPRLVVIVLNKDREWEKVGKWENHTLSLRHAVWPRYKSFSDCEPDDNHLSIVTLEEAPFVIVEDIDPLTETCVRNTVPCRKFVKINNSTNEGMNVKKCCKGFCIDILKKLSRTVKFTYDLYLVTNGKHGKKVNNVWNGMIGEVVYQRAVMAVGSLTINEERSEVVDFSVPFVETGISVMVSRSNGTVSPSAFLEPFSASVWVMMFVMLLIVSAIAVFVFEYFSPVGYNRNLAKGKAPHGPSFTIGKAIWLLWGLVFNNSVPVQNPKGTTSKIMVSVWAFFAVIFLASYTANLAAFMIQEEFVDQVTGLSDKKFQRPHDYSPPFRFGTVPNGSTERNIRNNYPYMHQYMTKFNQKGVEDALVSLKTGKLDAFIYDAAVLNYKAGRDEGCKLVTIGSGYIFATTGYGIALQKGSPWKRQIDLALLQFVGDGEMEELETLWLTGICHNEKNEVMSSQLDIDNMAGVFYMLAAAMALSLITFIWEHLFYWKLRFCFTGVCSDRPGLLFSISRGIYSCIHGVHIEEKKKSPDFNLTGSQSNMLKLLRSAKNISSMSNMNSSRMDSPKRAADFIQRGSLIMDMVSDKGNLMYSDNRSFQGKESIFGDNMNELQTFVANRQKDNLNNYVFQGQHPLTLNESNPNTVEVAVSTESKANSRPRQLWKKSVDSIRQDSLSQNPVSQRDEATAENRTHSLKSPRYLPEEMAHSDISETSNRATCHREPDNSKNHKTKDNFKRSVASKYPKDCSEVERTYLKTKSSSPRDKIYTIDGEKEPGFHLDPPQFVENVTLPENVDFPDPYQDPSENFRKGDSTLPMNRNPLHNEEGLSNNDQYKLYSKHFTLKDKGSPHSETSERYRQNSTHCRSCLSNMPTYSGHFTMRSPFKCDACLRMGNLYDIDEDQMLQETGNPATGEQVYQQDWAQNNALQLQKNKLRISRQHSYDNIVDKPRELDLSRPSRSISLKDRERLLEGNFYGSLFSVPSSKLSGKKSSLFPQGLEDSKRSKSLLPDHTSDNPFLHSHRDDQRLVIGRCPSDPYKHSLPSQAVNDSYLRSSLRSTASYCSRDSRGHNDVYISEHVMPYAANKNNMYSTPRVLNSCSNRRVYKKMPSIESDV
T6 sequence (Q12879 23-1464, other chains not shown): as above
T4 sequence (Q14957 20-1233, other chains not shown): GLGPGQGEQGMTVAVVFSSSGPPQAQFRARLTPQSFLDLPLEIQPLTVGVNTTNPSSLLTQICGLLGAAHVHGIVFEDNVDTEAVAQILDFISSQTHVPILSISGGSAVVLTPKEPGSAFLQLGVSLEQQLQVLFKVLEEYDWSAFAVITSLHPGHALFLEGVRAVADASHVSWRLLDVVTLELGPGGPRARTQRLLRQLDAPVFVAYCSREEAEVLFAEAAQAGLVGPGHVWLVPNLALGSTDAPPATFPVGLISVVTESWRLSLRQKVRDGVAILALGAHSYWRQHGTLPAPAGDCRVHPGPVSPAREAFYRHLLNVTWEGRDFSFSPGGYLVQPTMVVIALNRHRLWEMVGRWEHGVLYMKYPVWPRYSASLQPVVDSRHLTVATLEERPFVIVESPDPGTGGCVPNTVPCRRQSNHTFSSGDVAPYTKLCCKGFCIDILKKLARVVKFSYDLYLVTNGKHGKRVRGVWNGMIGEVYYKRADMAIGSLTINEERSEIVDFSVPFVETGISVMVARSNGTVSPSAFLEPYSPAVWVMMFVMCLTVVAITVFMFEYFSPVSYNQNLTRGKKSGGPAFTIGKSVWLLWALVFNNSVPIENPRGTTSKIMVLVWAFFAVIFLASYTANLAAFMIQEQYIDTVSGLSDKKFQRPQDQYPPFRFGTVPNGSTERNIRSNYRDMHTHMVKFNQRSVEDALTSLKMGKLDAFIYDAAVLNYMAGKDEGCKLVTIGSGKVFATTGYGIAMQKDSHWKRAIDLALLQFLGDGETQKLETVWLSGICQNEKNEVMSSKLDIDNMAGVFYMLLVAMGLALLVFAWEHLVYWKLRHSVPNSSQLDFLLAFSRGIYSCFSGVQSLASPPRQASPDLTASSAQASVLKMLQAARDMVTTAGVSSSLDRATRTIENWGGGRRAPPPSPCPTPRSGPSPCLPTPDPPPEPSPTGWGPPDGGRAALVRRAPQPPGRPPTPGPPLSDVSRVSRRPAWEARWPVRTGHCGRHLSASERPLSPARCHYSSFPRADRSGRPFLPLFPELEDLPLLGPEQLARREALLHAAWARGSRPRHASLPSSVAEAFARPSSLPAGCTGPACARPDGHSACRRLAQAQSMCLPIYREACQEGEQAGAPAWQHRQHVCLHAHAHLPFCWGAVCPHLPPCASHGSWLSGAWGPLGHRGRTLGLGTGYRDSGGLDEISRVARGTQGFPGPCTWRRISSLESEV
T7 sequence (Q14957 20-1233, other chains not shown): as above
5-HT2A receptor, sequence (P28223 whole entry): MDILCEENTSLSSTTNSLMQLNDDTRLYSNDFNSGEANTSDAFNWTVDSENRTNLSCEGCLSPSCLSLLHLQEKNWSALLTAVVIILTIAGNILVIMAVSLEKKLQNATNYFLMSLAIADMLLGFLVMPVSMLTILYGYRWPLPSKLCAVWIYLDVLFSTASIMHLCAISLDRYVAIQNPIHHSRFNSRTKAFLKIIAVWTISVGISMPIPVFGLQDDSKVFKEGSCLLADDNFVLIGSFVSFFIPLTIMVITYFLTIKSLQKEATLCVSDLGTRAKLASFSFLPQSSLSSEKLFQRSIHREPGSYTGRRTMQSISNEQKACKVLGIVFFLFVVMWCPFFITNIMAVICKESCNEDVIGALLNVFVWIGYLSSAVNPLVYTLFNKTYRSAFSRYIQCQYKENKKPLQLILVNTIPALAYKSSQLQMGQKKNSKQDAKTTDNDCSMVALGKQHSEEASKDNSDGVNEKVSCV

For `CCC(=O)C(C[C@H](C)N(C)C)(c1ccccc1)c1ccccc1` [Dextromethadone, dextromethadone], the pKi (5-HT2C receptor) is listed as 5.72, the “residual current, % of pre-application level” value (GluN1/GluN2D receptor; 1 μM L-glutamate, −80 mV, control cells 102.5±[…]) is listed as 62.5±4.1% and the “10 μM or 1 μM L-glutamate elicited current” value (GluN1/GluN2D receptor; −30 mV to −80 mV) is listed as “significantly reduced”. For the same compound, the “calcium response (mean±SEM)” value ([1]; 0.04 μM L-Glu + 10 μM DXT) was 0.5 ± 0.2, the “calcium response (mean±SEM)” value [1, 6] was 3.4 ± 0.2 and the “calcium response (mean±SEM)” value [1, 7] was 32 ± 0.7. For the same compound, the “calcium response (mean±SEM)” value ([1]; 0.2 μM L-Glu + 10 μM DXT) was 14 ± 0.4, the “calcium response (mean±SEM)” value [1, 8] was 15 ± 0.5 and the “calcium response (mean±SEM)” value [1, 9] was 35 ± 1.0. The “% effect on calcium entry, 100 QA + 10 DXT” value ([1]; 100 μM QA + 10 μM DXT) was −0.2 ± 0.2%, the “calcium response (mean±SEM)” value ([1]; 1000 μM QA + 10 μM DXT) was 34 ± 0.6 and the “% effect on calcium entry, 1000 QA + 10 DXT” value ([1]; 1000 μM QA + 10 μM DXT) was 34 ± 0.6%. The “calcium response (mean±SEM)” value [1, 10] was 34 ± 0.6, the “calcium response (mean±SEM)” value [1, 11] was 0.5 ± 0.2 and the “calcium response (mean±SEM)” value [1, 12] was 14 ± 0.4. The “QTcF changes from base-line” value (healthy subjects; SAD and MAD) was “none of the changes were considered clinically significant”, the “respiratory depression, dissociative and psychotomimetic effects, withdrawal signs and symptoms” value (healthy subjects; SAD and MAD, abrupt discontinuation) was “no evidence” and the tolerability (healthy subjects; single doses up to 150 mg and daily doses up to 75 mg for 10 days) was “well tolerated”. For the same compound, the “calcium response (mean±SEM)” value ([2]; 0.04 μM L-Glu + 10 μM DXT) was 1.6 ± 0.4, the “calcium response (mean±SEM)” value [2, 6] was −2.5 ± 0.7 and the “calcium response (mean±SEM)” value [2, 7] was −8.6 ± 1.5. For the same compound, the “calcium response (mean±SEM)” value ([2]; 0.2 μM L-Glu + 10 μM DXT) was 13 ± 0.7, the “calcium response (mean±SEM)” value [2, 8] was 7.7 ± 0.6 and the “calcium response (mean±SEM)” value [2, 9] was −3.8 ± 0.9. The “% effect on calcium entry, 100 QA + 10 DXT” value ([2]; 100 μM QA + 10 μM DXT) was −3.3 ± 0.5%, the “calcium response (mean±SEM)” value ([2]; 1000 μM QA + 10 μM DXT) was −8.0 ± 0.4 and the “% effect on calcium entry, 1000 QA + 10 DXT” value ([2]; 1000 μM QA + 10 μM DXT) was −8.0 ± 0.4%. The “calcium response (mean±SEM)” value [2, 10] was −11 ± 0.9, the “calcium response (mean±SEM)” value [2, 11] was 1.6 ± 0.4 and the “calcium response (mean±SEM)” value [2, 12] was 13 ± 0.7. For the same compound, the “calcium entry induced by 0.04 μM L-glutamate” value [3] was “significantly reduced”, the “calcium entry induced by 0.2 μM L-glutamate” value [3] was “significantly reduced” and the “calcium entry induced by 10 μM L-glutamate” value [3] was “significantly reduced”. For the same compound, the “calcium entry induced by 0.04 μM L-glutamate” value [4] was “significantly reduced”, the “calcium entry induced by 0.2 μM L-glutamate” value [4] was “significantly reduced” and the “calcium entry induced by 10 μM L-glutamate” value [4] was “significantly reduced”. The “calcium entry induced by 0.04 μM L-glutamate” value [5] was “significantly reduced”, the “calcium entry induced by 0.2 μM L-glutamate” value [5] was “significantly reduced” and the “calcium entry induced by 10 μM L-glutamate” value [5] was “significantly reduced”. The pKi (5-HT2A receptor) was 6.28.
